Patent US11078170B2 (Assembly Biosciences, Inc., priority 2017, dated 2021)

The compounds below were run on HBV viral production from HepAD38 cells (assay: Activity of test compounds on viral production from HepAD38 cells (viral load by qPCR of HBV core sequence in supernatant)). Details: Hepatitis B virus, 120 h, 5 days incubation, HBV DNA in supernatant by qPCR, top concentration 10 μM, read-out: Viral Load EC50 Activity range.
Assay type: cell-based
How it was run: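 EC50 and CC50 come from four-parameter fits of supernatant viral load and CellTiter-Glo viability, respectively. Viral load was measured by core-region TaqMan qPCR against HBV DNA standards and compared with DMSO controls. Tet-free HepAD38 cells (50,000/well, 2% FBS) were exposed to compound, highest 10 μM, for 5 days at 37° C.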

SMILES	EC50 [nM]
CN1[C@H](C(=O)Nc2ccc(F)c(Cl)c2)C[C@H](c2ccc(-c3cccnc3)s2)NS1(=O)=O [HBV-CSU-159-ISO-II, Cis-N-(3-chloro-4-fluorophenyl)-2-methyl-5-(5-(pyridin-3-yl)thiophen-2-yl)-1,2,6-thiadiazinane-3-carboxamide 1,1-dioxide]	< 1000
C=CCN1C(C(=O)Nc2ccc(F)c(Cl)c2)CC(c2cccs2)NS1(=O)=O (stereo not drawn) [HBV-CSU-040, Cis-2-Allyl-N-(3-chloro-4-fluorophenyl)-5-(thiophen-2-yl)-1,2,6-thiadiazinane-3-carboxamide 1,1-dioxide]	< 1000
Cc1nn(C)c(C)c1-c1ccc([C@H]2C[C@@H](C(=O)Nc3ccc(F)c(Cl)c3)N(C)S(=O)(=O)N2)s1 [HBV-CSU-314-ISO-I, Cis-N-(3-chloro-4-fluorophenyl)-2-methyl-5-(5-(1,3,5-trimethyl-1H-pyrazol-4-yl)thiophen-2-yl)-1,2,6-thiadiazinane-3-carboxamide 1,1-dioxide]	< 1000
CN1C(C(=O)Nc2ccc(F)c(Cl)c2)CC(c2cccc(F)c2)NS1(=O)=O (racemic) [HBV-CSU-231, Cis-N-(3-Chloro-4-fluorophenyl)-5-(3-fluorophenyl)-2-methyl-1,2,6-thiadiazinane-3-carboxamide 1,1-dioxide]	< 1000
[2H]C([2H])([2H])N1[C@@H](C(=O)Nc2ccc(F)c(Cl)c2)C[C@@H](c2ncc(Br)s2)NS1(=O)=O [HBV-CSU-336-ISO-II, 5-(5-Bromothiazol-2-yl)-N-(3-chloro-4-fluorophenyl)-2-(methyl-d3)-1,2,6-thiadiazinane-3-carboxamide 1,1-dioxide]	1000 to 5000
Cc1nn(C)cc1-c1ccc([C@@H]2C[C@H](C(=O)Nc3ccc(F)c(Cl)c3)N(C)S(=O)(=O)N2)s1 [HBV-CSU-313-ISO-II, Cis-N-(3-chloro-4-fluorophenyl)-5-(5-(1,3-dimethyl-1H-pyrazol-4-yl)thiophen-2-yl)-2-methyl-1,2,6-thiadiazinane-3-carboxamide 1,1-dioxide]	1000 to 5000
CN1[C@H](C(=O)Nc2ccc(F)c(Cl)c2)C[C@H](c2ccc(-c3cnn(CCO)c3)s2)NS1(=O)=O [HBV-CSU-293-ISO-I, Cis-N-(3-chloro-4-fluorophenyl)-5-(5-(1-(2-hydroxyethyl)-1H-pyrazol-4-yl)thiophen-2-yl)-2-methyl-1,2,6-thiadiazinane-3-carboxamide 1,1-dioxide]	< 1000
CN1[C@H](C(=O)Nc2cc(Br)cc(Br)c2)C[C@H](c2cccs2)NS1(=O)=O [HBV-CSU-048-ISO-I, Cis-N-(3,5-Dibromophenyl)-2-methyl-5-(thiophen-2-yl)-1,2,6-thiadiazinane-3-carboxamide 1,1-dioxide]	< 1000
O=C(Nc1ccc(F)c(Cl)c1)C1CC(c2nccs2)NS(=O)(=O)N1CCc1c[nH]nn1 (racemic) [HBV-CSU-092, Cis-2-(2-(1H-1,2,3-Triazol-4-yl)ethyl)-N-(3-chloro-4-fluorophenyl)-5-(thiazol-2-yl)-1,2,6-thiadiazinane-3-carboxamide 1,1-dioxide]	1000 to 5000
CN1[C@H](C(=O)Nc2ccc(F)c(Cl)c2)C[C@@H](c2ncc(Br)s2)NS1(=O)=O [HBV-CSU-122-Trans-ISO-II, (3S,5S)-5-(5-bromothiazol-2-yl)-N-(3-chloro-4-fluorophenyl)-2-methyl-1,2,6-thiadiazinane-3-carboxamide 1,1-dioxide]	1000 to 5000
CN1C(C(=O)Nc2ccc(F)c(Cl)c2)CC(c2ccc(C(=O)O)cc2)NS1(=O)=O (racemic) [HBV-CSU-218, Cis-4-(5-((3-Chloro-4-fluorophenyl)carbamoyl)-6-methyl-1,1-dioxido-1,2,6-thiadiazinan-3-yl)benzoic acid]	1000 to 5000
O=C(Nc1ccc(F)c(Cl)c1)[C@H]1C[C@@H](c2nccs2)NS(=O)(=O)N1CCO [HBV-CSU-097-ISO-I, Cis-N-(3-Chloro-4-fluorophenyl)-2-(2-hydroxyethyl)-5-(thiazol-2-yl)-1,2,6-thiadiazinane-3-carboxamide 1,1-dioxide]	> 5000
CN1[C@H](C(=O)Nc2ccc(F)c(Cl)c2)C[C@H](c2ccc(-c3c[nH]cn3)s2)NS1(=O)=O [HBV-CSU-331-ISO-I, Cis-5-(5-(1H-imidazol-4-yl)thiophen-2-yl)-N-(3-chloro-4-fluorophenyl)-2-methyl-1,2,6-thiadiazinane-3-carboxamide 1,1-dioxide]	< 1000
CN1[C@H](C(=O)Nc2ccc(F)c(Cl)c2)C[C@H](c2ccnn2C)NS1(=O)=O [HBV-CSU-054-ISO-II, Cis-N-(3-Chloro-4-fluorophenyl)-2-methyl-5-(1-methyl-1H-pyrazol-5-yl)-1,2,6-thiadiazinane-3-carboxamide 1,1-dioxide]	1000 to 5000
[2H]C1[C@]([2H])(C(=O)Nc2ccc(F)c(Cl)c2)N(C([2H])([2H])[2H])S(=O)(=O)N[C@]1([2H])c1ccc(-c2cn(C([2H])([2H])[2H])cn2)s1 (stereo in doubt) [HBV-CSU-378-ISO-II, Cis-N-(3-chloro-4-fluorophenyl)-2-(methyl-d3)-5-(5-(1-(methyl-d3)-1H-imidazol-4-yl)thiophen-2-yl)-1,2,6-thiadiazinane-3,4,5-d3-3-carboxamide 1,1-dioxide]	1000 to 5000
CN1[C@H](C(=O)Nc2ccc(F)c(Cl)c2)C[C@H](c2ncc(-c3ccc(Br)c(F)c3)s2)NS1(=O)=O [HBV-CSU-173-ISO-I, Cis-5-(5-(4-Bromo-3-fluorophenyl)thiazol-2-yl)-N-(3-chloro-4-fluorophenyl)-2-methyl-1,2,6-thiadiazinane-3-carboxamide 1,1-dioxide]	< 1000
CN1[C@H](C(=O)Nc2ccc(F)c(Cl)c2)C[C@H](c2ccc(-c3cnco3)s2)NS1(=O)=O [HBV-CSU-269-ISO-I, Cis-N-(3-Chloro-4-fluorophenyl)-2-methyl-5-(5-(oxazol-5-yl)thiophen-2-yl)-1,2,6-thiadiazinane-3-carboxamide 1,1-dioxide]	< 1000
CN(C)CCOc1ccc(C2CC(C(=O)Nc3ccc(F)c(Cl)c3)N(C)S(=O)(=O)N2)s1 (racemic) [HBV-CSU-188, Cis-N-(3-chloro-4-fluorophenyl)-5-(5-(2-(dimethylamino)ethoxy)thiophen-2-yl)-2-methyl-1,2,6-thiadiazinane-3-carboxamide 1,1-dioxide]	< 1000
CN1[C@@H](C(=O)Nc2ccc(F)c(Cl)c2)C[C@@H](c2ccc(-c3ccc(F)cc3)s2)NS1(=O)=O [HBV-CSU-238-ISO-II]	1000 to 5000
Cc1nn(C)c(C)c1-c1csc([C@@H]2C[C@H](C(=O)Nc3ccc(F)c(Cl)c3)N(C)S(=O)(=O)N2)c1 (relative stereo) [HBV-CSU-317-ISO-II, Cis-N-(3-chloro-4-fluorophenyl)-2-methyl-5-(4-(1,3,5-trimethyl-1H-pyrazol-4-yl)thiophen-2-yl)-1,2,6-thiadiazinane-3-carboxamide 1,1-dioxide]	< 1000
CCn1cc(-c2ccc(C3CC(C(=O)Nc4ccc(F)c(Cl)c4)N(C)S(=O)(=O)N3)s2)cn1 (racemic) [HBV-CSU-291, Cis-N-(3-chloro-4-fluorophenyl)-5-(5-(1-ethyl-1H-pyrazol-4-yl)thiophen-2-yl)-2-methyl-1,2,6-thiadiazinane-3-carboxamide 1,1-dioxide]	< 1000
CN1C(C(=O)Nc2ccc(F)c(Cl)c2)CC(c2ccc(O)cc2)NS1(=O)=O (stereo not drawn) [HBV-CSU-201, Cis-N-(3-Chloro-4-fluorophenyl)-5-(4-hydroxyphenyl)-2-methyl-1,2,6-thiadiazinane-3-carboxamide 1,1-dioxide]	< 1000
CC(C)(C)OCCN1C(C(=O)Nc2ccc(F)c(Cl)c2)CC(c2nccs2)NS1(=O)=O (racemic) [HBV-CSU-071, Cis-2-(2-(tert-Butoxy)ethyl)-N-(3-chloro-4-fluorophenyl)-5-(thiazol-2-yl)-1,2,6-thiadiazinane-3-carboxamide 1,1-dioxide]	1000 to 5000
[2H]C1[C@]([2H])(c2ccc(Br)s2)NS(=O)(=O)N(C([2H])([2H])[2H])[C@]1([2H])C(=O)Nc1ccc(F)c(Cl)c1 (stereo in doubt) [HBV-CSU-372-ISO-I, Cis-5-(5-bromothiophen-2-yl)-N-(3-chloro-4-fluorophenyl)-2-(methyl-d3)-1,2,6-thiadiazinane-3,4,5-d3-3-carboxamide 1,1-dioxide]	< 1000
CN1[C@@H](C(=O)Nc2ccc(F)c(Cl)c2)C[C@@H](c2ccc(Cl)cc2)NS1(=O)=O [HBV-CSU-265-ISO-II]	> 5000
CN1[C@@H](C(=O)Nc2ccc(F)c(Cl)c2)C[C@@H](c2ccc(-c3cncn3C)s2)NS1(=O)=O [HBV-CSU-267-ISO-II, Cis-N-(3-Chloro-4-fluorophenyl)-2-methyl-5-(5-(1-methyl-1H-imidazol-5-yl)thiophen-2-yl)-1,2,6-thiadiazinane-3-carboxamide 1,1-dioxide]	< 1000
CN1[C@H](C(=O)Nc2ccc(F)c(Cl)c2)C[C@H](c2ccc(C(F)(F)F)cc2)NS1(=O)=O (stereo in doubt) [HBV-CSU-217-ISO-I, Cis-N-(3-Chloro-4-fluorophenyl)-2-methyl-5-(4-(trifluoromethyl)phenyl)-1,2,6-thiadiazinane-3-carboxamide 1,1-dioxide]	> 5000
CN1[C@H](C(=O)Nc2ccc(F)c(C#N)c2)C[C@H](c2cccs2)NS1(=O)=O [HBV-CSU-045-ISO-I, Cis-N-(3-cyano-4-fluorophenyl)-2-methyl-5-(thiophen-2-yl)-1,2,6-thiadiazinane-3-carboxamide 1,1-dioxide]	< 1000
O=C(Nc1ccc(F)c(Cl)c1)[C@H]1C[C@@H](c2nccs2)NS(=O)(=O)N1CCOC(F)(F)F [HBV-CSU-072-ISO-I, Cis-N-(3-Chloro-4-fluorophenyl)-5-(thiazol-2-yl)-2-(2-(trifluoromethoxy)ethyl)-1,2,6-thiadiazinane-3-carboxamide 1,1-dioxide]	> 5000
Cc1cc(C2CC(C(=O)Nc3ccc(F)c(Cl)c3)N(C)S(=O)(=O)N2)sc1Br (stereo not drawn) [HBV-CSU-335, Cis-5-(5-bromo-4-methylthiophen-2-yl)-N-(3-chloro-4-fluorophenyl)-2-methyl-1,2,6-thiadiazinane-3-carboxamide 1,1-dioxide]	< 1000
